System: MCF7 breast cancer cells
Test: MCF7 proliferation (acid phosphatase assay and Trypan blue exclusion)
Format: cell-based, human
Settings: 1% α5 for 48 h and 1 μM DOX for 16 h
Experimental: MCF-7 cells were cultured in DMEM as above and treated with 1% α5 composition for 48 h and 1 μM doxorubicin (DOX; Sigma-Aldrich, Milan, Italy) for 16 h (FIG. 7).
To quantify MCF7 cell growth, acid phosphatase assay was used as described [Yang T T et al. 1996 Anal Biochem. 241(1):103-8]. Briefly, MCF7 cells were placed in 96-well plates at 5,000 to 20,000 cells per well density and treated with 1% α5 (for 48 h) and 1 μM DOX (for 16 h). Culture medium was removed and each well washed once with phosphate-buffered saline (PBS, pH 7.2), and added with 100 μl buffer containing 0.1 M sodium acetate (pH 5.0), 0.1% Triton X-100, and 5 mM p-nitrophenyl phosphate (pNPP). Then, plates were placed in a 37° C. incubator for 2 h. The reaction was stopped with the addition of 10 μl 1 N NaOH, and color development was assessed at 405 nm. Non-enzymatic pNPP hydrolysis was measured in wells without cells.

## COc1cccc2c1C(=O)c1c(O)c3c(c(O)c1C2=O)C[C@@](O)(C(=O)CO)C[C@@H]3O[C@H]1C[C@H](N)[C@H](O)[C@H](C)O1 [DOX, doxorubicin]
  anti-proliferative effect of DOX together with the α5 composition: completely unaffected

From patent US12622886B2, “Compositions comprising amino acids for prevention and/or treatment of cancer” (Professional Dietetics S.p.A., priority 2020, dated 2026)
